From patent US11220518B2, “Substituted n-pyrimidin-4-yl-3-amino-pyrrolo[3,4-c]pyrazoles as protein kinase C inhibitors” (PFIZER INC., priority 2007, dated 2022)

Molecular target: Protein Kinase C beta 2 (PKCβII) (Homo sapiens (Human), UniProt P05771)
Assay: Protein Kinase C beta 2 (PKCβII) coupled PK/LDH spectrophotometric kinase assay
Type: biochemical
Settings: apparent Ki, ATP-competitive model (Morrison equation); 5 nM PKC, 0.1 mM ATP, 0.15 mM peptide, 30° C., pH 7.4; read-out: Ki app
Experimental: Protein Kinase C beta 2 (PKCβII) catalyzes the production of ADP from ATP that accompanies the phosphoryl transfer to the PKC Pseudosubstrate peptide (A→S, RFARKGSLRQKNV). This transfer is coupled to the oxidation of β-NADH through the activities of Pyruvate Kinase (PK) and Lactate Dehydrogenase (LDH). β-NADH conversion to NAD+ is monitored by the decrease in absorbance at 340 nm (e=6.22 cm^−1 mM^−1) using a Molecular Devices SPECTRA max PLUS spectrophotometer. […]
Steady-state kinetic parameters for the bi-bi kinase reaction were determined at saturating phospho-acceptor peptide substrate concentration (0.15 mM) by fitting initial velocity data to the Michaelis-Menten equation, v=Vmax[S]/(KM[S]) where v is the measured initial velocity, Vmax is the maximal enzyme velocity, [S] is the ATP substrate concentration, and KM is the Michealis constant for ATP. Enzyme turnover values (kcat) were calculated according to […], where [E] is the total enzyme concentration. Enzyme inhibition constants (apparent Ki values) were determined by fitting initial velocities at variable inhibitor concentrations to a model for ATP competitive inhibition based on the Morrison equation). […]

Chain of Protein Kinase C beta 2 (PKCβII) (P05771 other isoform, or with tags, fused parts or gaps): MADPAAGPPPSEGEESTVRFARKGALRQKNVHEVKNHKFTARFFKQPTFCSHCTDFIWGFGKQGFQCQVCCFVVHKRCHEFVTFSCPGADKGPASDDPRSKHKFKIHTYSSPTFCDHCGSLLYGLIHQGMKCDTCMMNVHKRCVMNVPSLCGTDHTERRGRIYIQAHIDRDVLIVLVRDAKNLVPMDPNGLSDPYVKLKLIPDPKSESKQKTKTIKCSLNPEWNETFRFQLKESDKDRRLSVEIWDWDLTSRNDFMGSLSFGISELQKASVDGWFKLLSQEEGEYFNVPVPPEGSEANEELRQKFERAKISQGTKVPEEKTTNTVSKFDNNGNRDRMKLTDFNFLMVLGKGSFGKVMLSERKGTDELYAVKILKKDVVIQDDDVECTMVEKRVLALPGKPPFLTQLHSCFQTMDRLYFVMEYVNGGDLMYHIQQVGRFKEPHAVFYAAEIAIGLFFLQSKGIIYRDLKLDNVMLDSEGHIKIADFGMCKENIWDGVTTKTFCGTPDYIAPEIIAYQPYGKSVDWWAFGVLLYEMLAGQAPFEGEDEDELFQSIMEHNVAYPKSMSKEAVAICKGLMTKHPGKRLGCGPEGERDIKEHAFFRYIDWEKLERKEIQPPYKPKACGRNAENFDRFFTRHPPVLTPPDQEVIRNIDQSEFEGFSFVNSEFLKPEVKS

| SMILES | Ki |
| --- | --- |
| COCc1ncc(F)c(Nc2n[nH]c3c2CN(C(=O)N2CC(CCO)N(C)C[C@@H]2C)C3(C)C)n1 (single isomer, unassigned) [Example N3] | 15.6 nM |
| CCOc1ncc(F)c(Nc2n[nH]c3c2CN(C(=O)N2C[C@@H](C)N(C)C[C@@H]2C)C3(C)C)n1 [Example K1, N-(2-ethoxy-5-fluoropyrimidin-4-yl)-6,6-dimethyl-5-{[(2S,5R)-2,4,5-trimethylpiperazin-1-yl]carbonyl}-1,4,5,6-tetrahydropyrrolo[3,4-c]pyrazol-3-amine] | 1.12 nM |
